Results from article PMC8551263, “Optineurin modulates the maturation of dendritic cells to regulate autoimmunity through JAK2-STAT3 signaling” (Nature Communications, 2021).

Target: T1, OPTN (Homo sapiens, UniProt Q96CV9)
T1 construct: protein for SPR
Assay: surface plasmon resonance
Assay type: binding
Details: rapid on-rate and off-rate kinetics; sensorgrams in Supplementary Fig. 7a, b

T1 sequence (Q96CV9 whole entry): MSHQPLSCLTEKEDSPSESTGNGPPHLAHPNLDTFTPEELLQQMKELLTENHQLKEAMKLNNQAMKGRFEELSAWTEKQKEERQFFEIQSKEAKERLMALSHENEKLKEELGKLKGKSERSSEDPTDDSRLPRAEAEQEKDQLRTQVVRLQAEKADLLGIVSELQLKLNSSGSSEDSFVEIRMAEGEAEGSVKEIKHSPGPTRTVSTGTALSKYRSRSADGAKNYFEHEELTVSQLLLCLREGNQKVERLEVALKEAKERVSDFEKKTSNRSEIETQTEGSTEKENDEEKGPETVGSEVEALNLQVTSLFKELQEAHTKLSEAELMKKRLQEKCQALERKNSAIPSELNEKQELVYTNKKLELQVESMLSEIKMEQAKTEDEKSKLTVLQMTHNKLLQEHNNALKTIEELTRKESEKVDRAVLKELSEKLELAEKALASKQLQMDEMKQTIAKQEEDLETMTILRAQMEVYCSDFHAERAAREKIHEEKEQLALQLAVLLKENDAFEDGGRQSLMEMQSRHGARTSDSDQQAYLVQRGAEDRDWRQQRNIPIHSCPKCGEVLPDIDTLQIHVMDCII

Compound: C[C@H]1O[C@@H](O[C@H]2CC[C@@]3(C)[C@@H](CC[C@]4(C)[C@@H]3C=C[C@]35OC[C@@]6(CCC(C)(C)C[C@H]63)[C@H](O)C[C@]54C)[C@]2(C)CO)[C@H](O)[C@@H](O[C@@H]2O[C@H](CO)[C@@H](O)[C@H](O)[C@H]2O)[C@H]1O [Saikosaponin D]
- KD: 5.115 × e^−5 M
